Test results taken from the supplement of paper PMC10307832.

How the values were obtained:
Test in all cases: relative viability (nuclei count vs DMSO), 5 days (fraction); higher = more cells survive
BI-2536 + Tozasertib = compound: CC[C@@H]1C(=O)N(C)c2cnc(Nc3ccc(C(=O)NC4CCN(C)CC4)cc3OC)nc2N1C1CCCC1 [BI-2536] + Cc1cc(Nc2cc(N3CCN(C)CC3)nc(Sc3ccc(NC(=O)C4CC4)cc3)n2)n[nH]1 [Tozasertib] (partner 0.1 µM)
Outline: (§1)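 One day after seeding in 1536-well plates, lung cancer cell lines were dosed by pin tool. Dosing was either single-drug or a fixed anchor-drug dose plus five library-drug doses (not always all listed) in √10 steps. After 5 days, nuclei were stained in one fix-and-stain step and counted on 4× images, and relative viability is the nuclei count of treated wells over that of vehicle wells, given as the median of duplicate plates.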

BI-2536 + Olaparib = compound: CC[C@@H]1C(=O)N(C)c2cnc(Nc3ccc(C(=O)NC4CCN(C)CC4)cc3OC)nc2N1C1CCCC1 [BI-2536] + O=C(c1cc(Cc2n[nH]c(=O)c3ccccc23)ccc1F)N1CCN(C(=O)C2CC2)CC1 [Olaparib] (partner 8 µM)
Outline: as §1

BI-2536 + Alpelisib = compound: CC[C@@H]1C(=O)N(C)c2cnc(Nc3ccc(C(=O)NC4CCN(C)CC4)cc3OC)nc2N1C1CCCC1 [BI-2536] + Cc1nc(NC(=O)N2CCC[C@H]2C(N)=O)sc1-c1ccnc(C(C)(C)C(F)(F)F)c1 [Alpelisib] (partner 2 µM)
Outline: as §1

[1] = compound: CC1CC(=O)N(C2=CN=C(N=C2N1C3CCCC3)NC4=C(C=C(C=C4)C(=O)NC5CCN(CC5)C)OC)C [NPK76-II-72-1] + CS(=O)(=O)CCNCc1ccc(-c2ccc3ncnc(Nc4ccc(OCc5cccc(F)c5)c(Cl)c4)c3c2)o1 [Lapatinib] (partner 2 µM)
Outline: as §1

Cell Line | relative viability (BI-2536 + Tozasertib; first compound 0.01 µM) | relative viability (BI-2536 + Tozasertib; first compound 0.03162 µM) | relative viability (BI-2536 + Tozasertib; first compound 0.1 µM) | relative viability (BI-2536 + Tozasertib; first compound 0.3162 µM) | relative viability (BI-2536 + Tozasertib; first compound 1 µM) | relative viability (BI-2536 + Olaparib; first compound 0.01 µM) | relative viability (BI-2536 + Olaparib; first compound 0.03162 µM) | relative viability (BI-2536 + Olaparib; first compound 0.1 µM) | relative viability (BI-2536 + Olaparib; first compound 0.3162 µM) | relative viability (BI-2536 + Olaparib; first compound 1 µM) | relative viability (BI-2536 + Alpelisib; first compound 0.01 µM) | relative viability (BI-2536 + Alpelisib; first compound 0.03162 µM) | relative viability (BI-2536 + Alpelisib; first compound 0.1 µM) | relative viability (BI-2536 + Alpelisib; first compound 0.3162 µM) | relative viability (BI-2536 + Alpelisib; first compound 1 µM) | relative viability ([1]; first compound 0.01 µM) | relative viability ([1]; first compound 0.03162 µM) | relative viability ([1]; first compound 0.1 µM) | relative viability ([1]; first compound 0.3162 µM) | relative viability ([1]; first compound 1 µM)
201T | 0.996 | 0.925 | 0.93 | 0.41 | 0.388 | 0.879 | 0.796 | 0.853 | 0.382 | 0.205 | 0.997 | 1.03 | 0.973 | 0.441 | 0.285 | 0.975 | 1.07 | 1.04 | 1.11 | 1
A549 | – | – | – | – | – | 0.267 | 0.444 | 0.125 | 0.0214 | 0.0368 | 0.767 | 0.814 | 0.698 | 0.0447 | 0.0443 | 0.881 | 1.11 | 0.963 | 0.869 | 1.07
A-427 | 0.187 | 0.211 | 0.189 | 0.15 | 0.146 | 0.727 | 0.593 | 0.385 | 0.191 | 0.176 | 1.11 | 1.04 | 1.03 | 0.381 | 0.136 | 1.07 | 1.04 | 1.02 | 1.03 | 0.953
ABC-1 | 0.203 | 0.147 | 0.185 | 0.197 | 0.233 | 0.657 | 0.876 | 0.423 | 0.406 | 0.299 | 1.08 | 1.13 | 0.732 | 0.296 | 0.3 | 1.02 | 1.19 | 1.18 | 1.08 | 1.31
BEN | 0.524 | 0.546 | 0.452 | 0.58 | 0.553 | 1.09 | 0.984 | 0.779 | 0.382 | 0.364 | 1.05 | 0.779 | 0.695 | 0.261 | 0.245 | 0.61 | 0.548 | 0.657 | 0.492 | 0.697
CAL-12T | 0.291 | 0.294 | 0.2 | 0.194 | 0.186 | 0.682 | 0.596 | 0.493 | 0.167 | 0.19 | 1.13 | 1.07 | 1.08 | 0.173 | 0.141 | 0.571 | 0.749 | 0.632 | – | 0.777
COR-L23 | 0.196 | 0.189 | 0.137 | 0.145 | 0.151 | 0.384 | 0.288 | 0.156 | 0.111 | 0.111 | 0.853 | 0.675 | 0.18 | 0.0928 | 0.0868 | 0.879 | 1.02 | 1.02 | 1.03 | 0.929
COR-L 105 | 0.351 | 0.408 | 0.299 | 0.306 | 0.333 | 0.655 | 0.668 | 0.679 | 0.404 | 0.296 | 0.744 | 1.07 | 0.817 | 0.252 | 0.26 | 0.404 | 0.375 | 0.358 | 0.367 | 0.345
Calu-6 | – | – | – | – | – | 0.533 | 0.524 | 0.243 | 0.0982 | 0.0892 | 0.985 | 0.682 | 0.285 | 0.0989 | 0.126 | 1.01 | 1.12 | 1.08 | 1.03 | 1.17
ChaGo-K-1 | 0.216 | 0.227 | 0.219 | 0.211 | 0.239 | 0.414 | 0.308 | 0.265 | 0.164 | 0.15 | – | – | – | – | – | – | – | – | – | –
EBC-1 | – | – | – | – | – | 0.616 | 0.612 | 0.377 | 0.139 | 0.133 | 0.852 | 0.799 | 0.564 | 0.175 | 0.179 | 0.193 | 0.182 | 0.218 | 0.229 | 0.218
EKVX | 0.321 | 0.482 | 0.394 | 0.202 | 0.132 | 0.856 | 0.827 | 0.582 | 0.211 | 0.177 | 0.933 | 0.826 | 0.791 | 0.175 | 0.138 | 0.206 | 0.193 | 0.22 | 0.222 | 0.236
EMC-BAC-2 | 0.302 | 0.302 | 0.201 | 0.212 | 0.209 | 0.463 | 0.324 | 0.303 | 0.207 | 0.231 | 0.741 | 0.886 | 0.604 | 0.161 | 0.12 | 0.9 | 1.05 | 0.871 | 0.884 | 0.912
EPLC-272H | 0.187 | 0.252 | 0.215 | 0.148 | 0.164 | 0.478 | 0.111 | 0.124 | 0.081 | 0.0599 | 0.951 | 0.758 | – | 0.0883 | 0.114 | 0.905 | 0.968 | 1.01 | 1.04 | 1.11
H3255 | 0.569 | 0.507 | 0.586 | 0.196 | 0.224 | 0.529 | 0.401 | 0.406 | 0.298 | 0.275 | 0.691 | 0.492 | 0.37 | 0.252 | 0.241 | 0.263 | 0.25 | 0.217 | – | 0.226
HARA | 0.109 | 0.127 | 0.114 | 0.0998 | 0.128 | 0.8 | 0.988 | 0.507 | 0.139 | 0.0972 | 1.03 | 0.927 | 0.843 | 0.062 | 0.0695 | 0.762 | 0.806 | 0.578 | 0.722 | 0.713
HCC-15 | 0.461 | 0.389 | 0.195 | 0.14 | 0.108 | 0.612 | 0.557 | 0.343 | 0.163 | 0.144 | 0.835 | 0.73 | 0.691 | 0.142 | 0.117 | 0.85 | 0.879 | 0.787 | 0.749 | 0.895
